Laboratory results from patent US11884710B2, “Peptide compounds and methods of use in wound healing” (priority 2013, dated 2024).

What was measured:
[1] = test system: cytokines in corneal lysates; experiment: Corneal cytokines after intrastromal injection (MILLIPLEX MAP mouse cytokine assay); type: in vivo; settings: intrastromal 0.5 μl, 10^−4, 10^−5, 10^−6 M; 24 and 48 hours
Experimental: Corneas were injected intrastromally with 0.5 μl of peptide 95-122 at a final concentration of 10^−4 M, 10^−5 M, and 10^−6 M and vehicle (saline) control. Corneas were collected and flash frozen at 24 hours and 48 hours. Corneal lysates were analyzed for cytokines using the MILLIPLEX® MAP mouse cytokine assay for IL-7(A), IL-15 (B), IFN-γ (C), MIP1-α (D) (EMD Millipore Corp., Billerica, Mass.). The means of independent experimental values are shown±SEM. ***P<0.001, **P<0.01, *P<0.05 by unpaired t-test as compared to vehicle treated controls. […] Corneas were injected intrastromally with 0.5 μl of peptide 95-122 at a final concentration of 10^−4 M, 10^−5 M, and 10^−6 M and vehicle (saline) control. Corneas were collected and flash frozen at 24 hours and 48 hours. Corneal lysates were analyzed for cytokines using the MILLIPLEX® MAP mouse cytokine assay for MIP1-β (EMD Millipore Corp., Billerica, Mass.). **P<0.01, *P<0.05 by unpaired t-test as compared to vehicle treated controls. […] Corneas were injected intrastromally with 0.5 μl of peptide 95-122 at a final concentration of 10^−4 M, 10^−5 M, and 10^−6 M and vehicle (saline) control. Corneas were collected and flash frozen at 24 hours and 48 hours. Corneal lysates were analyzed for cytokines using the MILLIPLEX® MAP mouse cytokine assay for KC (A), IL-1β (B), and GM-CSF (C) (EMD Millipore Corp., Billerica, Mass.). **P<0.01, *P<0.05 by unpaired t-test as compared to vehicle treated controls.

PKCα = experiment: Immunofluorescence for PKCα in HCEC monolayers; type: cell-based, human; settings: CAP37 500 ng/ml; 15 minutes
Experimental: HCEC monolayers were grown to confluency and were scratched with a 10 μl pipette tip or left unscratched, and then the monolayers were treated for 15 minutes with (A-B) buffer, (C-D) PMA (1 μM), (E-F) 250 ng/ml CAP37, and (G-J) 500 ng/ml CAP37. Cells were stained for PKCδ (250 ng/ml; (A-H)), and PKCα (1 μg/ml; (I-J)) and detected using immunofluorescence (4 μg/ml, ALEXA FLUOR® 488 dye (Life Technologies Corp., Grand Island, N.Y.)). […] Scratched monolayers that were treated for 18 hours with CAP37 (250 ng/ml; (L)) or left untreated (K) were stained for PKCδ. […] Scale bars, 20 μm.
Immunofluorescence: HCECs and primary HCECs were cultured on Lab-Tek® II glass chamber slides (Nunc, Rochester, N.Y.) and starved overnight in basal media. For wounding studies, monolayers were scratched with a 10 μl pipette tip or left unscratched and treated with 1 μM phorbol 12-myristate 13-acetate (PMA, Sigma-Aldrich), rCAP37 (25-500 ng/ml), or basal KSFM (Gibco) for 15 minutes. After treatment, the cells were fixed in 4% (v/v) formaldehyde solution (Thermo, Rockford, Ill.) in PBS (Gibco) for 20 minutes at room temperature followed by permeabilization in 0.5% TRITON™-X 100 (Mallinckrodt, St. Louis, Mo.) in PBS for 10 minutes. Remaining formaldehyde was quenched with 0.05 M ammonium chloride (NH4Cl, Sigma-Aldrich, St. Louis, Mo.) in PBS for 10 minutes. […]

HCEC monolayers = experiment: In vitro scratch assay of HCEC monolayers; type: cell-based, human
Experimental: (A) HCECs were grown to confluency and scratched using a 10 μl pipette tip. Scratched HCEC monolayers were treated with HB-EGF (250 ng/ml) or rCAP37 (25-2000 ng/ml), or were left untreated in basal Keratinocyte Serum Free Medium (KSFM). Wound closure was monitored at 0, 18, 24, and 48 hours utilizing a camera-equipped inverted microscope. The histogram represents data acquired at 48 hours, and the values are the mean±SEM of the percentage of wound closure. The data are representative of at least 4 independent experiments. The percentage of wound closure in treated monolayers was compared to untreated controls by one-way analysis of variance (ANOVA) followed by Dunnett's multiple comparison test, **P<0.01, *P<0.05. (B) Representative images of scratched monolayers treated with buffer control, HB-EGF, and rCAP37 (at 25, 100, and 250 ng/ml) are shown for each time point. Images were taken at 20× objective.
In vitro model of wound healing: An in vitro scratch assay was used in order to determine the ability of rCAP37 to facilitate corneal wound healing. Human corneal epithelial cells were cultured as described above until they reached a confluent monolayer. Each monolayer was scratched using a 10 μl pipette tip to create two perpendicular lines. Monolayers were treated with heparin binding-epidermal growth factor (HB-EGF, 250 ng/ml; Becton Dickinson), rCAP37 (25-2000 ng/ml), or basal KSFM (Gibco). Wound closure was monitored at 0, 18, 24, and 48 hours utilizing a camera-equipped inverted microscope (TE2000-E; Nikon, Melville, N.Y.). Time-lapse images of in vitro wound closure were obtained using a camera-equipped inverted microscope (TE2000-E; Nikon) from […]. HCEC monolayers were treated with HB-EGF, rCAP37, and basal KSFM as described above. The width of each scratch was quantitated using ImageJ software (US National Institutes of Health, Bethesda, Md.). Results are presented as the percentage of wound closure.

Molecule | GM-CSF in corneal lysates [1] | IFN-γ in corneal lysates [1] | IL-7 in corneal lysates [1] | IL-10 in corneal lysates [1] | IL-15 in corneal lysates [1] | KC in corneal lysates [1] | MIP1-α in corneal lysates [1] | MIP1-β in corneal lysates [1] | PKCα staining, in words (PKCα) | percentage wound closure (HCEC monolayers; CAP37 250 ng/ml, at 18 hours) [%] | percentage wound closure (HCEC monolayers; CAP37 500 ng/ml) | time to complete closure of scratch wounds (HCEC monolayers; HB-EGF 250 ng/ml, CAP37 250 ng/ml) [h]
LDREANLTSSVTILPLPLQNATVEAGTR (listed as Homo sapiens) [Peptide 95-122] | significantly increases | significantly increases | significantly increases | significantly increases | significantly increases | significantly increases | significantly increases | significantly increases |  |  |  | 
CAP37: cationic antimicrobial protein of Mr 37 kDa; recombinant CAP37 produced in human embryonic kidney (HEK) 293 cells (protein) IVGGRKARPRQFPFLASIQNQGRHFCGGALIHARFVMTAASCFQSQNPGVSTVVLGAYDLRRRERQSRQTFSISSMSENGYDPQQNLNDLMLLQLDREANLTSSVTILPLPLQNATVEAGTRCQVAGWGSQRSGGRLSRFPRFVNVTVTPEDQCRPNNVCTGVLTRRGGICNGDGGTPLVCEGLAHGVASFSLGPCGRGPDFFTRVALFRDWIDGVLNNPGP |  |  |  |  |  |  |  |  | no increase in PKCα staining | ~71 | approximately 62% | 24 to 48
